Values quoted from earlier work in PubChem BioAssay AID1259409 (Chemical Carcinogenesis Research Information System (CCRIS), 2018).

Test system: rodent chemically induced tumor inhibition, incidence and multiplicity
Assay: CCRIS tumor inhibitor studies

## O=c1oc2c(O)c(O)cc3c(=O)oc4c(O)c(O)cc1c4c23
Carcinogen: 7,12-DIMETHYLBENZ[A]ANTHRACENE, 57-97-6, Dose [Inhibitor]: 0, 2000 PPM IN DIET FROM 1 WK PRIOR TO CARCINOGEN TREATMENT TO 3 D POST CARCINOGEN TREATMENT (STUDY DURATION: 42 WK), Route [Inhibitor]: ORAL, Species: FISH, Strain/Sex: RAINBOW TROUT/ MALE, FEMALE, Target Tissue: Type of Lesion: STOMACH: TUMOR, Dose [Carcinogen]: 5.5 PPM IN WATER FOR 1 HR, Promoter: NONE USED
  tumour outcome (control, treated, inhibition, significance): 88%, 78%, 11%, p<0.05
Carcinogen: 7,12-DIMETHYLBENZ[A]ANTHRACENE, 57-97-6, Dose [Inhibitor]: 0, 2000 PPM IN DIET FROM 3 WK PRIOR TO CARCINOGEN TREATMENT TO 3 D POST CARCINOGEN TREATMENT (STUDY DURATION: 42 WK), Route [Inhibitor]: ORAL, Species: FISH, Strain/Sex: RAINBOW TROUT/ MALE, FEMALE, Target Tissue: Type of Lesion: LIVER: TUMOR, Dose [Carcinogen]: 4.16 PPM IN WATER FOR 1 HR, Promoter: NONE USED
  tumour outcome (control, treated, inhibition, significance): 7%, 22%, -214%, p<0.001
Carcinogen: 7,12-DIMETHYLBENZ[A]ANTHRACENE, 57-97-6, Dose [Inhibitor]: 0, 2000 PPM IN DIET FROM 3 WK PRIOR TO CARCINOGEN TREATMENT TO 3 D POST CARCINOGEN TREATMENT (STUDY DURATION: 42 WK), Route [Inhibitor]: ORAL, Species: FISH, Strain/Sex: RAINBOW TROUT/ MALE, FEMALE, Target Tissue: Type of Lesion: SWIM BLADDER: TUMOR, Dose [Carcinogen]: 4.16 PPM IN WATER FOR 1 HR, Promoter: NONE USED
  tumour outcome (control, treated, inhibition, significance): 14%, 61%, -336%, p<0.001
Carcinogen: 7,12-DIMETHYLBENZ[A]ANTHRACENE, 57-97-6, Dose [Inhibitor]: O, 2000 PPM IN DIET FROM 3 WK PRIOR TO CARCINOGEN TREATMENT TO 3D POST CARCINOGEN TREATMENT (STUDY DURATION: 42 WK), Route [Inhibitor]: ORAL, Species: FISH, Strain/Sex: RAINBOW TROUT/ MALE, FEMALE, Target Tissue: Type of Lesion: STOMACH: TUMOR, Dose [Carcinogen]: 4.16 PPM IN WATER FOR 1 HR, Promoter: NONE USED
  tumour outcome (control, treated, inhibition, significance): 97%, 94%, 3%, not significant
Carcinogen: (+/-)-1BETA,2ALPHA-DIHYDROXY-3ALPHA,4ALPHA-EPOXY-1,2,3,4-TETRAHYDROBENZO[A]PYRE NE, 78919-11-6, Dose [Inhibitor]: 0, 300 NMOL (TOTAL DOSE) APPLIED 10 MIN PRIOR TO CARCINOGEN DOSE INJECTED AS 1/7, 2/7, AND 4/7 OF THE TOTAL ON DAYS 1, 8, Route [Inhibitor]: INTRAPERITONEAL, Species: MOUSE, Strain/Sex: ICR/MALE, FEMALE, Target Tissue: Type of Lesion: LUNG: TUMOR, Dose [Carcinogen]: 50 NMOL (TOTAL DOSE) INJECTED IN DOSES OF 1/7, 2/7, AND 4/7 ON DAYS 1, 8, AND 15 OF LIFE, RESPECTIVELY, Promoter: NONE USED
  tumour outcome (control, treated, inhibition, significance): 93%, 86%, 8%, not significant
Carcinogen: (+/-)-7BETA,8ALPHA-DIHYDROXY-9ALPHA,10ALPHA-EPOXY-7,8,9,10-TETRAHYDROBENZO[A]PYR ENE, 58917-67-2, Dose [Inhibitor]: 0, 300 NMOL (TOTAL DOSE) APPLIED 10 MIN PRIOR TO CARCINOGEN DOSE INJECTED AS 1/7, 2/7, AND 4/7 OF THE TOTAL ON DAYS 1, 8, Route [Inhibitor]: INTRAPERITONEAL, Species: MOUSE, Strain/Sex: ICR/MALE, FEMALE, Target Tissue: Type of Lesion: LUNG: TUMOR, Dose [Carcinogen]: 15 NMOL (TOTAL DOSE) INJECTED IN DOSES OF 1/7, 2/7, AND 4/7 ON DAYS 1, 8, AND 15 OF LIFE, RESPECTIVELY, Promoter: NONE USED
  tumour outcome (control, treated, inhibition, significance): 86%, 76%, 12%, not significant
Carcinogen: (+/-)-7BETA,8ALPHA-DIHYDROXY-9ALPHA,10ALPHA-EPOXY-7,8,9,10-TETRAHYDROBENZO[A]PYR ENE, 58917-67-2, Dose [Inhibitor]: 0, 1250 NMOL IN 200 µL ACETONE:METHANOL (45:55) ONCE APPLIED 5 MIN PRIOR TO CARCINOGEN DOSE (STUDY DURATION: 21 WK), Route [Inhibitor]: DERMAL, Species: MOUSE, Strain/Sex: CD-1/FEMALE, Target Tissue: Type of Lesion: SKIN: TUMOR, Dose [Carcinogen]: 200 NMOL IN ACETONE:DMSO (90:10) ONCE, Promoter: 12-O-TETRADECANOYLPHORBOL-13-ACETATE, 16561-29-8
  tumour outcome (control, treated, inhibition, significance): 62%, 50%, 19%, not significant
Carcinogen: (+/-)-7BETA,8ALPHA-DIHYDROXY-9ALPHA,10ALPHA-EPOXY-7,8,9,10-TETRAHYDROBENZO[A]PYR ENE, 58917-67-2, Dose [Inhibitor]: 0, 2500 NMOL IN 200 µL ACETONE:METHANOL (45:55) ONCE APPLIED 5 MIN PRIOR TO CARCINOGEN DOSE (STUDY DURATION: 21 WK), Route [Inhibitor]: DERMAL, Species: MOUSE, Strain/Sex: CD-1/FEMALE, Target Tissue: Type of Lesion: SKIN: TUMOR, Dose [Carcinogen]: 200 NMOL IN ACETONE:DMSO (90:10) ONCE, Promoter: 12-O-TETRADECANOYLPHORBOL-13-ACETATE, 16561-29-8
  tumour outcome (control, treated, inhibition, significance): 62%, 43%, 31%, not significant
Carcinogen: (+/-)-7BETA,8ALPHA-DIHYDROXY-9ALPHA,10ALPHA-EPOXY-7,8,9,10-TETRAHYDROBENZO[A]PYR ENE, 58917-67-2, Dose [Inhibitor]: 0, 2500 NMOL IN 200 µL ACETONE:METHANOL (45:55) ONCE APPLIED 30 MIN PRIOR TO CARCINOGEN DOSE (STUDY DURATION: 21 WK), Route [Inhibitor]: DERMAL, Species: MOUSE, Strain/Sex: CD-1/FEMALE, Target Tissue: Type of Lesion: SKIN: TUMOR, Dose [Carcinogen]: 200 NMOL IN ACETONE:DMSO (90:10) ONCE, Promoter: 12-O-TETRADECANOYLPHORBOL-13-ACETATE, 16561-29-8
  tumour outcome (control, treated, inhibition, significance): 53%, 33%, 38%, not significant
Carcinogen: (+/-)-7BETA,8ALPHA-DIHYDROXY-9ALPHA,10ALPHA-EPOXY-7,8,9,10-TETRAHYDROBENZO[A]PYR ENE, 58917-67-2, Dose [Inhibitor]: 0, 2500 NMOL IN 200 µL ACETONE:METHANOL (45:55) ONCE APPLIED 120 MIN PRIOR TO CARCINOGEN DOSE (STUDY DURATION: 21 WK), Route [Inhibitor]: DERMAL, Species: MOUSE, Strain/Sex: CD-1/FEMALE, Target Tissue: Type of Lesion: SKIN: TUMOR, Dose [Carcinogen]: 200 NMOL IN ACETONE:DMSO (90:10) ONCE, Promoter: 12-O-TETRADECANOYLPHORBOL-13-ACETATE, 16561-29-8
  tumour outcome (control, treated, inhibition, significance): 63%, 43%, 32%, not significant
Carcinogen: AZOXYMETHANE, 25843-45-2, Dose [Inhibitor]: 0, 4000 PPM IN DIET BEGINNING PRIOR TO CARCINOGEN DOSE AND CONTINUING FOR DURATION OF STUDY (STUDY DURATION: 54 WK), Route [Inhibitor]: ORAL, Species: RAT, Strain/Sex: F344/MALE, Target Tissue: Type of Lesion: COLON: ADENOCARCINOMA, Dose [Carcinogen]: 15 MG/KG 1/WK FOR 2 WK, Promoter: NONE USED
  tumour outcome (control, treated, inhibition, significance): 72%, 64%, 11%, not calculated
Carcinogen: AZOXYMETHANE, 25843-45-2, Dose [Inhibitor]: 0, 4000 PPM IN DIET BEGINNING PRIOR TO CARCINOGEN DOSE AND CONTINUING FOR DURATION OF STUDY (STUDY DURATION: 54 WK), Route [Inhibitor]: ORAL, Species: RAT, Strain/Sex: F344/MALE, Target Tissue: Type of Lesion: COLON: ADENOMA, Dose [Carcinogen]: 15 MG/KG 1/WK FOR 2 WK, Promoter: NONE USED
  tumour outcome (control, treated, inhibition, significance): 14%, 8%, 43%, not calculated
